Where two headings read alike, the source gives them in different places.
What was measured:
Type in all cases: cell-based
[1] = system: phosphorylation of AKT (pAKT) in T47D cells expressing mutant PI3Ka (H1047R); test: In vitro cell pAKT (Ser473) HTRF, T47D cells; conditions: cellular pAKT, T47D cells, mutant PI3Ka (H1047R), 6 hours, read-out: Avg T-47D IC50
Method in brief: (§1)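 Cells seeded on plates pre-stamped with 10-point compound dilutions, then grown 6 h at 37 °C (T47D in RPMI/10% FBS/insulin; SKBR3 in McCoy's 5a/10% FBS). Lysates read for pAKT Ser473 by HTRF after overnight antibody incubation. Inhibition normalised to 0.1% DMSO and 10 uM alpelisib; IC50 by four-parameter fit.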

[2] = system: T47D cells expressing mutant PI3Ka (H1047R); test: In vitro cell proliferation, T47D cells (CellTiter-Glo); conditions: inhibition of proliferation, read-out: Avg T-47D EC50
Method in brief: (§2)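 EC50 values derive from a four-parameter logistic fit of luminescence-based (CellTiter-Glo) inhibition, referenced to 0.1% DMSO and 10 uM Alpelisib controls. Compound exposure lasted 72 h at 37 °C.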

[3] = system: phosphorylation of AKT (pAKT) in SKBR3 cells express WT PI3Ka; test: In vitro cell pAKT (Ser473) HTRF, SKBR3 cells; conditions: cellular pAKT
Method in brief: as §1

[4] = system: SKBR3 cells express WT PI3Ka; test: In vitro cell proliferation, SKBR3 cells (CellTiter-Glo); conditions: inhibition of proliferation
Method in brief: as §2

| IC50 [1] [nM] | EC50 ([2]; 72 hours) [nM] | IC50 ([3]; 6 hours) [nM] | EC50 ([4]; 72 hours) [nM] | IC50 ([1]; Homo sapiens, T47D, 6 h) [nM] | EC50 ([2]; Homo sapiens, T47D, 72 h) [nM] | IC50 ([3]; Homo sapiens, SK-BR-3, 6 h) [nM] | EC50 ([4]; Homo sapiens, SK-BR-3, 72 h) [nM] | Compound |
| --- | --- | --- | --- | --- | --- | --- | --- | --- |
| 1 to 500 | 1 to 500 | > 15000 | > 15000 | – | – | – | – | C[C@@H](Nc1cccc(F)c1C(=O)O)c1cc(F)cc2c(=O)n(C)c(-c3cnc(OC4CC4)c(F)c3)cc12 [Example 390] |
| – | – | – | – | 1 to 500 | 1 to 500 | > 15000 | > 15000 | Cc1cc([C@@H](C)Nc2ccccc2C(=O)O)c2cc(-c3cnc(CF)cn3)n(C)c(=O)c2c1 [Example 393] |
| 1 to 500 | 1 to 500 | > 15000 | > 15000 | – | – | – | – | Cc1cc([C@@H](C)Nc2ccccc2C(=O)O)c2cc(-c3cnc(OC4CC4)cn3)n(C)c(=O)c2c1 [Example 394] |
| 1 to 500 | 1 to 500 | > 15000 | > 15000 | – | – | – | – | Cc1cc([C@@H](C)Nc2ccccc2C(=O)O)c2cc(-c3cnc(C(C)(F)F)cn3)n(C)c(=O)c2c1 [Example 395] |
| – | – | – | – | 1 to 500 | 1 to 500 | > 15000 | > 15000 | Cc1cc([C@@H](C)Nc2ccccc2C(=O)O)c2cc(-c3ccc(C(F)(F)F)cn3)n(C)c(=O)c2c1 [Example 396] |
| 500 to 2000 | 1 to 500 | > 15000 | > 15000 | – | – | – | – | Cc1ncncc1N1CCN(c2cc3c([C@@H](C)Nc4cccc(F)c4C(=O)O)cc(F)cc3c(=O)n2C)CC1 [Example 397] |
| – | – | – | – | 500 to 2000 | 500 to 2000 | > 15000 | > 15000 | Cc1cc([C@@H](C)Nc2ccccc2C(=O)O)c2cc(Cl)n(C)c(=O)c2c1 [Example 400] |
| – | – | – | – | 1 to 500 | 1 to 500 | > 15000 | > 15000 | Cc1ncc(-c2ncc(-c3cc4c([C@@H](C)Nc5cccc(F)c5C(=O)O)cc(F)cc4c(=O)n3C)cc2F)cc1F [Example 403] |
| – | – | – | – | 1 to 500 | 1 to 500 | > 15000 | > 15000 | C[C@@H](Nc1cccc(F)c1C(=O)O)c1cc(F)cc2c(=O)n(C)c(-c3cnc(-c4cncc(F)c4)c(F)c3)cc12 [Example 404] |
| – | – | – | – | 1 to 500 | 500 to 2000 | > 15000 | > 15000 | Cc1cc([C@@H](C)Nc2ccccc2C(=O)O)c2cc(N3CC(CC(F)(F)F)C3)n(C)c(=O)c2c1 [Example 405] |
| 1 to 500 | 1 to 500 | > 15000 | > 15000 | – | – | – | – | CC(Nc1cccc(F)c1C(=O)O)c1cc(F)cc2c(=O)n(C)c(-c3ccc(OC4CC(F)C4)nc3)cc12 (centres unmarked) [Example 407] |
| 500 to 2000 | 500 to 2000 | > 15000 | > 15000 | – | – | – | – | Cc1ccc(C2CN(c3cc4c([C@@H](C)Nc5cccc(F)c5C(=O)O)cc(F)cc4c(=O)n3C)C2)cn1 [Example 409] |
| – | – | – | – | 1 to 500 | 1 to 500 | > 15000 | > 15000 | Cc1cc([C@@H](C)Nc2cccc(F)c2C(=O)O)c2cc(N3CCN(C)[C@@H](C(F)(F)F)C3)n(C)c(=O)c2c1 [Example 410] |
| – | – | – | – | 1 to 500 | 1 to 500 | > 15000 | > 15000 | Cc1cc([C@@H](C)Nc2cccc(F)c2C(=O)O)c2cc(N3CCN(C)[C@H](C(F)(F)F)C3)n(C)c(=O)c2c1 [Example 411] |
| – | – | – | – | 500 to 2000 | 2000 to 15000 | > 15000 | > 15000 | C[C@@H](Nc1cccc(F)c1C(=O)O)c1cc(F)cc2c(=O)n(C)c(N3CC(F)(F)C3)cc12 [Example 412] |
| 2000 to 15000 | 2000 to 15000 | > 15000 | > 15000 | – | – | – | – | C[C@@H](Nc1cccc(F)c1C(=O)O)c1cc(F)cc2c(=O)n(C)c(N3CC(C(F)(F)F)C3)cc12 [Example 413] |

| IC50 [1] [nM] | EC50 ([2]; 72 hours) [nM] | IC50 ([3]; 6 hours) [nM] | EC50 ([4]; 72 hours) [nM] | IC50 ([1]; Homo sapiens, T47D, 6 h) [nM] | EC50 ([2]; Homo sapiens, T47D, 72 h) [nM] | IC50 ([3]; Homo sapiens, SK-BR-3, 6 h) [nM] | EC50 ([4]; Homo sapiens, SK-BR-3, 72 h) [nM] | Compound |
| --- | --- | --- | --- | --- | --- | --- | --- | --- |
| 1 to 500 | 1 to 500 | > 15000 | > 15000 | – | – | – | – | C[C@@H](Nc1cccc(F)c1C(=O)O)c1cc(F)cc2c(=O)n(C)c(N3CCC(F)(F)C3)cc12 [Example 414] |
| – | – | – | – | 1 to 500 | 500 to 2000 | > 15000 | > 15000 | C[C@@H](Nc1cccc(F)c1C(=O)O)c1cc(F)cc2c(=O)n(C)c(N3CC[C@@H](C(F)(F)F)C3)cc12 [Example 415] |
| – | – | – | – | 500 to 2000 | 500 to 2000 | > 15000 | > 15000 | C[C@@H](Nc1cccc(F)c1C(=O)O)c1cc(F)cc2c(=O)n(C)c(N3CC[C@H](C(F)(F)F)C3)cc12 [Example 416] |
| – | – | – | – | 1 to 500 | 1 to 500 | > 15000 | > 15000 | Cc1cnc(N2CCN(c3cc4c([C@@H](C)Nc5cccc(F)c5C(=O)O)cc(F)cc4c(=O)n3C)CC2)s1 [Example 417] |
| – | – | – | – | > 15000 | > 15000 | > 15000 | > 15000 | Cc1cc([C@@H](C)Nc2ccccc2C(=O)O)c2cc(N3CCn4c(C)nnc4C3)n(C)c(=O)c2c1 [Example 418] |
| – | – | – | – | 500 to 2000 | 500 to 2000 | > 15000 | > 15000 | Cc1cc([C@@H](C)Nc2ccccc2C(=O)O)c2cc(N3CCn4ncnc4C3)n(C)c(=O)c2c1 [Example 419] |
| – | – | – | – | 1 to 500 | 1 to 500 | > 15000 | > 15000 | Cc1cc([C@@H](C)Nc2ccccc2C(=O)O)c2cc(-c3cnc(CC(F)(F)F)cn3)n(C)c(=O)c2c1 [Example 422] |
| – | – | – | – | 1 to 500 | 1 to 500 | 2000 to 15000 | > 15000 | C[C@@H](Nc1cccc(F)c1C(=O)O)c1cc(F)cc2c(=O)n(C)c(N3CCN(c4cnn(C(C)(C)C#N)c4)CC3)cc12 [Example 424] |
| – | – | – | – | 1 to 500 | 1 to 500 | > 15000 | > 15000 | C[C@@H](Nc1cccc(F)c1C(=O)O)c1cc(F)cc2c(=O)n(C)c(N3CCN(c4nccs4)CC3)cc12 [Example 429] |
| – | – | – | – | 1 to 500 | 500 to 2000 | > 15000 | > 15000 | Cc1cc([C@@H](C)Nc2ccccc2C(=O)O)c2cc(N3CCn4cc(C(F)(F)F)nc4C3)n(C)c(=O)c2c1 [Example 432] |
| 1 to 500 | 500 to 2000 | > 15000 | > 15000 | – | – | – | – | Cc1cc([C@@H](C)Nc2ccccc2C(=O)O)c2cc(N3CCn4c(cnc4C(F)(F)F)C3)n(C)c(=O)c2c1 [Example 433] |
| – | – | – | – | 1 to 500 | 1 to 500 | > 15000 | > 15000 | Cc1cc([C@@H](C)Nc2ccccc2C(=O)O)c2cc(N3CCn4cc(C)nc4C3)n(C)c(=O)c2c1 [Example 434] |
| 2000 to 15000 | 2000 to 15000 | > 15000 | > 15000 | – | – | – | – | Cc1cc([C@@H](C)Nc2ccccc2C(=O)O)c2cc(N3CCn4c(nnc4C(F)(F)F)C3)n(C)c(=O)c2c1 [Example 435] |
| – | – | – | – | 2000 to 15000 | 2000 to 15000 | > 15000 | > 15000 | Cc1cc([C@@H](C)Nc2ccccc2C(=O)O)c2cc(N3CCn4nncc4C3)n(C)c(=O)c2c1 [Example 436] |
| > 15000 | > 15000 | > 15000 | > 15000 | – | – | – | – | Cc1cc([C@@H](C)Nc2cccc(F)c2C(=O)O)c2cc(N3CCn4c(cnc4C)C3)n(C)c(=O)c2c1 [Example 438] |

| Compound | IC50 [1] [nM] | EC50 ([2]; 72 hours) [nM] | IC50 ([3]; 6 hours) [nM] | EC50 ([4]; 72 hours) [nM] | IC50 ([1]; Homo sapiens, T47D, 6 h) [nM] | EC50 ([2]; Homo sapiens, T47D, 72 h) [nM] | IC50 ([3]; Homo sapiens, SK-BR-3, 6 h) [nM] | EC50 ([4]; Homo sapiens, SK-BR-3, 72 h) [nM] |
| --- | --- | --- | --- | --- | --- | --- | --- | --- |
| C[C@@H](Nc1cccc(F)c1C(=O)O)c1cc(F)cc2c(=O)n(C)c(N3C4CCC3CN(CC(F)(F)F)C4)cc12 [Example 398] | – | – | – | – | 1 to 500 | 1 to 500 | 2000 to 15000 | > 15000 |

— US20260078103A1, “ISOQUINOLONES AS PI3K INHIBITORS” (OnKure, Inc., priority 2022, published 2026)
